Laboratory results as given in ChEMBL document CHEMBL4765389, “Antimicrobial and anti-inflammatory activities of short dodecapeptides derived from duck cathelicidin: Plausible mechanism of bactericidal action and endotoxin neutralization” (Eur J Med Chem, 2020).
Calls of active or inactive are those of the source. The rule behind the calls is not given here.

Tests used:
Escherichia coli [1] = assay: Bacteriostatic activity against Escherichia coli KCTC 1682 assessed as reduction in colony forming unit at 0.5 times MIC measured for 24 hrs by time kill assay; assay type: functional
Pseudomonas aeruginosa = assay: Antibacterial activity against Pseudomonas aeruginosa KCTC 1637 assessed as reduction in bacterial growth incubated for 24 hrs by CLSI based broth dilution method; assay type: functional; details: read-out: MIC100
Staphylococcus aureus [2] = assay: Antibacterial activity against methicillin-resistant Staphylococcus aureus CCARM 3089 assessed as reduction in bacterial growth incubated for 24 hrs by CLSI based broth dilution method; assay type: functional; details: read-out: MIC100
RAW264.7 [3] = assay: Antiinflammatory activity against mouse RAW264.7 cells assessed as reduction in LPS-induced TNFalpha level at 10 uM incubated for 24 hrs by […] relative to control; assay type: functional
[4] = Cytotoxicity against mouse NIH/3T3 cells assessed as reduction in cell viability at 20 uM incubated for 24 hrs by MTT assay; assay type: cell-based, NIH3T3; details: NIH/3T3 cells, read-out: INH
[5] = system: Staphylococcus epidermidis; assay: Antibacterial activity against Staphylococcus epidermidis KCTC 1917 assessed as reduction in bacterial growth incubated for 24 hrs by CLSI based broth dilution method; assay type: functional; details: read-out: MIC100
[6] = Therapeutic index, ratio of HC10 for sheep RBC to geometric mean MIC for yeast; assay type: toxicity; details: sheep red blood cells, read-out: TI
Enterococcus faecium = assay: Antibacterial activity against vancomycin-resistant Enterococcus faecium ATCC 51559 assessed as reduction in bacterial growth incubated for 24 hrs by CLSI based broth dilution method; assay type: functional; details: read-out: MIC100
Staphylococcus aureus [7] = assay: Antibacterial activity against methicillin-resistant Staphylococcus aureus CCARM 3095 assessed as reduction in bacterial growth incubated for 24 hrs by CLSI based broth dilution method; assay type: functional; details: read-out: MIC100
[8] = Cytotoxicity against mouse RAW264.7 cells assessed as reduction in cell viability at 20 uM incubated for 24 hrs by MTT assay; assay type: cell-based; details: read-out: INH
[9] = Therapeutic index, ratio of HC10 for sheep RBC to geometric mean MIC for gram positive bacteria; assay type: toxicity; details: sheep red blood cells, read-out: TI
[10] = Antibacterial activity against multidrug-resistant Pseudomonas aeruginosa CCARM 2095 assessed as reduction in bacterial growth incubated for 24 hrs by CLSI based broth dilution method; assay type: functional; details: read-out: MIC100
Escherichia coli [11] = assay: Antibacterial activity against Escherichia coli KCTC 1682 assessed as reduction in bacterial growth incubated for 24 hrs by CLSI based broth dilution method; assay type: functional; details: read-out: MIC100
Erythrocyte [12] = assay: Hemolytic activity in sheep RBC assessed as reduction in hemoglobin at 256 uM incubated for 1 hr; assay type: ADME, cell-based, Ovis aries
Salmonella typhimurium = assay: Antibacterial activity against Salmonella typhimurium KCTC 1926 assessed as reduction in bacterial growth incubated for 24 hrs by CLSI based broth dilution method; assay type: functional, Salmonella enterica subsp. enterica serovar Typhimurium; details: Salmonella enterica, read-out: MIC100
[13] = Retention time of the compound by RP-HPLC method; assay type: physicochemical
Bacteria [14] = assay: Antibacterial activity against Gram negative bacteria assessed as reduction in bacterial growth incubated for 24 hrs by CLSI based broth dilution method; assay type: functional; details: read-out: MIC100
Staphylococcus aureus [15] = assay: Antibacterial activity against Staphylococcus aureus KCTC 1621 assessed as reduction in bacterial growth incubated for 24 hrs by CLSI based broth dilution method; assay type: functional; details: read-out: MIC100
Saccharomyces cerevisiae = assay: Antifungal activity against yeast assessed as reduction in fungal growth incubated for 24 hrs by CLSI based broth dilution method; assay type: functional; details: read-out: MIC100
Bacteria [16] = assay: Antibacterial activity against Gram positive bacteria assessed as reduction in bacterial growth incubated for 24 hrs by CLSI based broth dilution method; assay type: functional; details: read-out: MIC100
Candida albicans [17] = assay: Antifungal activity against Candida albicans KCTC 7965 assessed as reduction in fungal growth incubated for 24 hrs by CLSI based broth dilution method; assay type: functional; details: read-out: MIC100
Staphylococcus aureus [18] = assay: Antibacterial activity against methicillin-resistant Staphylococcus aureus CCARM 3090 assessed as reduction in bacterial growth incubated for 24 hrs by CLSI based broth dilution method; assay type: functional; details: read-out: MIC100
Bacillus subtilis = assay: Antibacterial activity against Bacillus subtilis KCTC 3068 assessed as reduction in bacterial growth incubated for 24 hrs by CLSI based broth dilution method; assay type: functional; details: read-out: MIC100
Erythrocyte [19] = assay: Hemolytic activity in sheep RBC assessed as reduction in hemoglobin incubated for 1 hr; assay type: ADME, cell-based, Ovis aries
[20] = Antibacterial activity against multidrug-resistant Pseudomonas aeruginosa CCARM 2109 assessed as reduction in bacterial growth incubated for 24 hrs by CLSI based broth dilution method; assay type: functional; details: read-out: MIC100
Candida albicans [21] = assay: Antifungal activity against Candida albicans KCTC 7121 assessed as reduction in fungal growth incubated for 24 hrs by CLSI based broth dilution method; assay type: functional; details: read-out: MIC100
RAW264.7 [22] = assay: Antiinflammatory activity against mouse RAW264.7 cells assessed as reduction in LPS-induced nitrite level at 5 uM incubated for 24 hrs by Griess reagent based assay relative to control; assay type: functional
[23] = Therapeutic index, ratio of HC10 for sheep RBC to geometric mean MIC for gram negative bacteria; assay type: toxicity; details: sheep red blood cells, read-out: TI

CCn1cc(C(=O)O)c(=O)c2ccc(C)nc21
Activity (Escherichia coli [1]): inactive

H-LAKKIYRAWKRR-NH2
MIC (Pseudomonas aeruginosa): 4 µM | MIC (Staphylococcus aureus [2]): 32 µM | inhibition at 10 µM (RAW264.7 [3]): < 10% | cytotoxicity at 24 h, 20 µM [4]: < 10% | MIC [5]: 8 µM | selectivity ratio [6]: 64 | MIC (Enterococcus faecium): 16 µM | MIC (Staphylococcus aureus [7]): 16 µM | cytotoxicity at 24 h, 20 µM [8]: < 10% | selectivity ratio [9]: 36.1 | MIC [10]: 32 µM | MIC (Escherichia coli [11]): 8 µM | Activity (Erythrocyte [12]): Non-Toxic | MIC (Salmonella typhimurium): 4 µM | Retention_time [13]: 14.1 min | MIC (Bacteria [14]): 16 µM | MIC (Staphylococcus aureus [15]): 4 µM | MIC (Saccharomyces cerevisiae): 8 µM | MIC (Bacteria [16]): 14.2 µM | MIC (Candida albicans [17]): 8 µM | MIC (Staphylococcus aureus [18]): 16 µM | MIC (Bacillus subtilis): 8 µM | HC10 (Erythrocyte [19]): > 256 µM | MIC [20]: 32 µM | MIC (Candida albicans [21]): 8 µM | inhibition at 5 µM (RAW264.7 [22]): < 10% | selectivity ratio [23]: 32

H-LAKKIYRAWKRW-NH2
MIC (Pseudomonas aeruginosa): 4 µM | MIC (Staphylococcus aureus [2]): 32 µM | inhibition at 10 µM (RAW264.7 [3]): < 10% | cytotoxicity at 24 h, 20 µM [4]: < 10% | MIC [5]: 8 µM | selectivity ratio [6]: 64 | MIC (Enterococcus faecium): 16 µM | MIC (Staphylococcus aureus [7]): 16 µM | cytotoxicity at 24 h, 20 µM [8]: < 10% | selectivity ratio [9]: 37.4 | MIC [10]: 16 µM | MIC (Escherichia coli [11]): 16 µM | Activity (Erythrocyte [12]): Non-Toxic | MIC (Salmonella typhimurium): 2 µM | Retention_time [13]: 17.1 min | MIC (Bacteria [14]): 14 µM | MIC (Staphylococcus aureus [15]): 4 µM | MIC (Saccharomyces cerevisiae): 8 µM | MIC (Bacteria [16]): 13.7 µM | MIC (Candida albicans [17]): 8 µM | MIC (Staphylococcus aureus [18]): 16 µM | MIC (Bacillus subtilis): 4 µM | HC10 (Erythrocyte [19]): > 256 µM | MIC [20]: 32 µM | MIC (Candida albicans [21]): 8 µM | inhibition at 5 µM (RAW264.7 [22]): < 10% | selectivity ratio [23]: 36.6

H-LAKKIYRKWKRW-NH2
MIC (Pseudomonas aeruginosa): 4 µM | MIC (Staphylococcus aureus [2]): 16 µM | inhibition at 10 µM (RAW264.7 [3]): < 10% | cytotoxicity at 24 h, 20 µM [4]: < 10% | MIC [5]: 4 µM | selectivity ratio [6]: 64 | MIC (Enterococcus faecium): 8 µM | MIC (Staphylococcus aureus [7]): 16 µM | cytotoxicity at 24 h, 20 µM [8]: < 10% | selectivity ratio [9]: 52.8 | MIC [10]: 16 µM | MIC (Escherichia coli [11]): 8 µM | Activity (Erythrocyte [12]): Non-Toxic | MIC (Salmonella typhimurium): 2 µM | Retention_time [13]: 15.1 min | MIC (Bacteria [14]): 7.6 µM | MIC (Staphylococcus aureus [15]): 4 µM | MIC (Saccharomyces cerevisiae): 8 µM | MIC (Bacteria [16]): 9.7 µM | MIC (Candida albicans [17]): 8 µM | MIC (Staphylococcus aureus [18]): 16 µM | MIC (Bacillus subtilis): 4 µM | HC10 (Erythrocyte [19]): > 256 µM | MIC [20]: 8 µM | MIC (Candida albicans [21]): 8 µM | inhibition at 5 µM (RAW264.7 [22]): < 10% | selectivity ratio [23]: 67.4

H-QLVPLAIKIYRAWKRR-NH2
MIC (Pseudomonas aeruginosa): 16 µM | MIC (Staphylococcus aureus [2]): 32 µM | cytotoxicity at 24 h, 20 µM [4]: 50% | MIC [5]: 16 µM | selectivity ratio [6]: 15 | MIC (Enterococcus faecium): 32 µM | MIC (Staphylococcus aureus [7]): 32 µM | cytotoxicity at 24 h, 20 µM [8]: 35% | selectivity ratio [9]: 8.3 | MIC [10]: 32 µM | MIC (Escherichia coli [11]): 32 µM | Activity (Erythrocyte [12]): Non-Toxic | MIC (Salmonella typhimurium): 16 µM | Retention_time [13]: 24.1 min | MIC (Bacteria [14]): 25.6 µM | MIC (Staphylococcus aureus [15]): 8 µM | MIC (Saccharomyces cerevisiae): 12 µM | MIC (Bacteria [16]): 21.7 µM | MIC (Candida albicans [17]): 8 µM | MIC (Staphylococcus aureus [18]): 16 µM | MIC (Bacillus subtilis): 16 µM | HC10 (Erythrocyte [19]): 180 µM | MIC [20]: 32 µM | MIC (Candida albicans [21]): 16 µM | selectivity ratio [23]: 7

H-VPLAIKIYRAWKRR-NH2
MIC (Pseudomonas aeruginosa): 8 µM | MIC (Staphylococcus aureus [2]): 32 µM | cytotoxicity at 24 h, 20 µM [4]: < 10% | MIC [5]: 16 µM | selectivity ratio [6]: 32 | MIC (Enterococcus faecium): 16 µM | MIC (Staphylococcus aureus [7]): 32 µM | cytotoxicity at 24 h, 20 µM [8]: < 10% | selectivity ratio [9]: 25.6 | MIC [10]: 32 µM | MIC (Escherichia coli [11]): 16 µM | Activity (Erythrocyte [12]): Non-Toxic | MIC (Salmonella typhimurium): 8 µM | Retention_time [13]: 21.7 min | MIC (Bacteria [14]): 19.2 µM | MIC (Staphylococcus aureus [15]): 8 µM | MIC (Saccharomyces cerevisiae): 16 µM | MIC (Bacteria [16]): 20 µM | MIC (Candida albicans [17]): 16 µM | MIC (Staphylococcus aureus [18]): 32 µM | MIC (Bacillus subtilis): 4 µM | HC10 (Erythrocyte [19]): > 256 µM | MIC [20]: 32 µM | MIC (Candida albicans [21]): 16 µM | selectivity ratio [23]: 26.7
